Test system: U87 cells
Assay: Comparison of peptide variants by crystal violet staining and light microscopy
Settings: U87 cells; 7.5, 10, 15, 20 and 25 µg/ml; 3 hours incubation
From the text: The sizes of the resulting in silico peptides varied from 10 to 30 amino acids. In order to facilitate their cellular internalisation, a TAT-HIV sequence was attached to the C-terminal ends. All peptides were […]. The peptide library was produced by Cambridge Peptides (Cambridge, UK). The peptides were then screened with the MTT (3-(4,5-dimethylthiazol-2-yl)-2,5-diphenyltetrazolium bromide) assay on U87 human glioma cells. Cellular morphology after peptide exposure was assessed by crystal violet staining and light microscopy. All experiments were performed in triplicate.
To increase the stability of the peptide, two further sub-formulations of the original formula (L-aa, containing only L-amino acids) were created: D-aa (retro inversed, (ri)), a peptide comprised of a backward sequence of the original in silico formula, yet made up solely of D-amino acids and an analogue peptide to original in silico peptide formula, comprised of D-amino acids. D-amino acids are highly resistant to protease mediated degradation and have a low immunogenic response. The respective peptide variants were tested in the following concentrations: 7.5, 10, 15, 20 and 25 µg/ml and incubated for 3 hours.

Ac-YGRKKRRQRRRGKTLRVAKAIYKRYIE-NH2 was tested, and the “cytotoxic effect / potency by crystal violet staining” value was “cytotoxic effect”.

From article PMC4104761, “Identification of a novel lytic peptide for the treatment of solid tumours” (Genes & Cancer, 2014)
